{"source": "patent US20040110177A1", "about": "“Method for identifying functional nucleic acids” (priority 2003, published 2004)", "format_in_all_cases": "cell-based, human", "key": {"Hela S3": {"test_system": "Hela S3", "assay": "Anti-Fas (CH-11) induced apoptosis with kinase inhibitors, FACS sub-G1 nuclei, Hela S3", "conditions": "Hela S3, 100 ng/ml CH-11, no FCS; SU 5402 10 μM, AG 1295 1 μM, SB 203580 10 μM", "experimental": "(§1) Cells were grown in Ham's F12 medium without FCS and treated with 100 ng/ml anti-Fas antibody CH-11 with and without inhibitors. Apoptosis was measured by FACS analysis as described in the examples. SU 5402: 10 μM, AG 1295: 1 μM, SB 203580: 10 μM, PD 98059: 25 μM.\n(§2) 50000 cells per well obtained from the parental cell line Hela S3 or from the clones, respectively, were grown in a 12 well cell culture dish for 2 days in 2 ml Ham's F12 medium containing 10% FCS. On the third day the cells were washed twice with 1 ml Ham's F12 medium and then the medium exchanged against 1 ml Ham's F12 medium. On the next day the medium was supplemented with the respective inhibitors and 100 to 200 ng/ml CH-11. On the next day the medium was decanted and transferred to an Eppendorf tube. The cells were washed once with 200 μl PBS, the PBS was transferred to the respective Eppendorf tube. Then the remaining cells were also transferred to the respective Eppendorf tube after treatment with EDTA/trypsin in PBS. The cells were pelleted by centrifugation, suspended in 500 μl hypotonic buffer (0.1% sodium citrate, 0.1% Triton-X100, 20 μg/ml propidium iodide) and incubated for 2-24 hours at 4° C. The resutling cell nuclei were analyzed by FACS.\n(§3) The propidium iodide fluorescence of single nuclei was determined using a FACSCalibur (Becton Dickinson) cytometer. The forward scatter light (FSC) and the side scatter light (SSC) were recorded simultaneously. The FSC peak was adjusted at channel 500 in a 1024 channel linear scale and the red fluorescence peak at channel 200 of a logarithmic scale. The FSC cut-off value was determined by gating to 95% of the greatest nuclei of a negative control without supplements. Nuclei were classified as apoptotic when a subdiploid signal between the G1/G0 peak and channel 10 was present."}, "[1]": {"test_system": "clone 14 (apoptosis-resistant Hela S3 clone)", "assay": "Anti-Fas (CH-11) induced apoptosis with kinase inhibitors, FACS sub-G1 nuclei, clone 14", "conditions": "clone 14, 100 ng/ml CH-11, no FCS; for change in number of apoptotic cells / apoptosis rate (in words): AG 1295 1 μM, PD 98059 25 μM; for increase in apoptosis: SU 5402 10 μM, SB 203580 10 μM", "experimental": "as §1\nThe cervix carcinoma cell line Hela S3 (ATCC CCL-2.2) was plated on 10 cm cell culture dishes (10^5 cells) in Ham's F12 growth medium containing 10% FCS. On the next day the medium was exchanged against medium without FCS supplemented with 100 ng/ml apoptosis activating anti-Fas antibody CH-11 (Coulter Immunotech). After 3 days when most of the cells were dead, the medium was exchanged once more against the medium containing 10% FCS without antibody. The surviving cells were clonally cultivated for 3 weeks. The clones were picked and expanded.\nas §2, §3"}, "[2]": {"test_system": "clone 5 (apoptosis-resistant Hela S3 clone)", "assay": "Anti-Fas (CH-11) induced apoptosis with kinase inhibitors, FACS sub-G1 nuclei, clone 5", "conditions": "clone 5, CH-11; SU 5402, AG 1295", "experimental": "as §1\n(§4) The cervix carcinoma cell line Hela S3 (ATCC CCL-2.2) was plated on 10 cm cell culture dishes (10^5 cells) in Ham's F12 growth medium containing 10% FCS. On the next day the medium was exchanged against medium without FCS supplemented with 100 ng/ml apoptosis activating anti-Fas antibody CH-11 (Coulter Immunotech). […]\n(§5) 50000 cells per well obtained from the parental cell line Hela S3 or from the clones, respectively, were grown in a 12 well cell culture dish for 2 days in 2 ml Ham's F12 medium containing 10% FCS. […] The resutling cell nuclei were analyzed by FACS.\nas §3, with “Nuclei were classified as apoptotic when a subdiploid signal between the G1/G0 peak and channel 10 was present.” left out"}, "[3]": {"test_system": "clone 20 (apoptosis-resistant Hela S3 clone)", "assay": "Anti-Fas (CH-11) induced apoptosis with kinase inhibitors, FACS sub-G1 nuclei, clone 20", "conditions": "clone 20, 100 ng/ml CH-11, no FCS; SB 203580 10 μM, PD 98059 25 μM", "experimental": "as §1, §4, §5\nas §3, with “Nuclei were classified as apoptotic when a subdiploid signal between the G1/G0 peak and channel 10 was present.” left out"}}}
{"smiles": "Cc1cc2ncc(-c3ccccc3)nc2cc1C", "note": "[AG 1295]", "values": [{"measurement": "increase in apoptosis", "setting": "Hela S3", "value": "about 30%"}, {"measurement": "change in number of apoptotic cells / apoptosis rate (in words)", "setting": "[1]", "value": "nearly in a doubling of the number of apoptotic cells"}, {"measurement": "increase in apoptosis", "setting": "[2]", "value": 30, "unit": "%"}]}
{"smiles": "C[S+]([O-])c1ccc(-c2nc(-c3ccncc3)c(-c3ccc(F)cc3)[nH]2)cc1", "note": "(centres unmarked) [SB 203580]", "values": [{"measurement": "change in apoptosis rate (in words)", "setting": "[3]", "value": "slight increase of apoptosis"}, {"measurement": "increase in apoptosis", "setting": "Hela S3", "value": 25, "unit": "%"}, {"measurement": "increase in apoptosis", "setting": "[1]", "value": 60, "unit": "%"}]}
{"smiles": "Cc1c[nH]c(/C=C2\\C(=O)Nc3ccccc32)c1CCC(=O)O", "note": "[SU 5402]", "values": [{"measurement": "increase in apoptosis", "setting": "Hela S3", "value": "about 50%"}, {"measurement": "increase in apoptosis", "setting": "[1]", "value": "~300", "unit": "%"}, {"measurement": "increase in apoptosis", "setting": "[2]", "value": "about 50%"}]}
{"smiles": "COc1cccc(-c2cc(=O)c3ccccc3o2)c1N", "note": "[PD 98059]", "values": [{"measurement": "change in apoptosis rate (in words)", "setting": "[3]", "value": "triples the apoptosis rate"}, {"measurement": "change in number of apoptotic cells / apoptosis rate (in words)", "setting": "[1]", "value": "doubling of the apoptosis rate"}]}
